Measurements from patent US20260083865A1, “PROSTATE SPECIFIC MEMBRANE ANTIGEN (PSMA) LIGANDS AND USE THEREOF” (priority 2022, published 2026).
“Also recorded” adds a separate entry of the source. Numbered stars: 1 amine (or outer) side, 2 acyl side, 3 side chain; on linkers, the order of the positions; unused ones are H or OH. Bridge positions count the residues as written; N and C are the ends. Square brackets hold non-standard residues; d marks the D form. Peptide text beside a SMILES is read from it. * marks the point of attachment. DOTA = O=C(O)CN1CCN(CC(=O)O)CCN(CC(=O)*)CCN(CC(=O)O)CC1; Phe(4-Cl) = N[C@@H](Cc1ccc(Cl)cc1)C(=O)O; Arg(Me) = CNC(=N)NCCC[C@H](N)C(=O)O; X1 = O=C(CC1CCN([*:1])CC1)[*:2]; Lys(Me) = CNCCCC[C@H](N)C(=O)O; Tle = CC(C)(C)[C@H](N)C(=O)O; Aib = CC(C)(N)C(=O)O

Tested on: PSMA-expressing ST1273 tumors
Assay: Efficacy study in mice with PSMA-expressing ST1273 tumors (tumor volume)
Format: in vivo
Description: The efficacy of ^177Lu-PSM-0194 (PSM-0194 labeled with radioactive Lutetium-177) was investigated in the PDX tumor model ST1273. […] The ST1273 PDX model was developed at XenoSTART (San Antonio, Texas, USA) and PSMA expression was confirmed by immunohistochemistry.
ST1273 tumor fragments were transplanted subcutaneously at the right flank of female NMRI nu/nu mice. In brief, the parent animals with ST1273 PDX tumors for transplantation were euthanized by cervical dislocation. The tumors were resected and trimmed to remove the connective tissues. The tumors were put in a Petri dish with PBS and cut with a scalpel into pieces of approximately 5×5×5 mm. Recipient mice were anesthetized (isoflurane, 1-3% in ambient air supplemented with 100% O2) and an incision cut in the skin on the back. Room was made for the tumor between the muscle and skin with forceps. The tumor pieces were dipped in PBS before being placed under the skin with forceps. The incision was closed with a 7 mm wound clip. Another incision was cut in the skin on the back, where a testosterone rod was inserted subcutaneously with forceps (PreclinApps, Testosterone MedRod 75 μg/day, drug release duration 100 days). The incision was closed with non-absorbable prolene 5-0 sutures and animals were chipped for identification and allowed to recover from anesthesia. Tumor growth and animal weight were measured twice a week starting 7 days after inoculation. Tumor size was measured by caliper and the volume was estimated using the following formula 0.52×(length×width^2).
6-7 weeks after inoculation, three mice with ST1273 PDX tumors were dosed with ^177Lu-PSM-0194 and were subjected to SPECT/computed tomography scans. Tumor size measurement was continued for 42 days after dosing. In brief, PSM-0194 was labeled with radioactive Lutetium-177 with a molar activity of 30 MBq/nmol. An activity dose of 30 MBq per mouse was injected intravenously. The mice injected with ^177Lu—PSM-0194 underwent SPECT/computed tomography scans at 4, 24, and 72 hours p.i. to evaluate the distribution of ^177Lu-PSM-0194 in different tissues. Regions of interest (ROI) were drawn based on computed tomography images for the tumor and following organs: heart (estimate of blood), kidney (left), kidney (right), and tail. Uptake of ^177Lu-PSM-0194 (% ID/g, decay-corrected) in the corresponding ROI was determined by quantitative imaging analysis. […] Highest uptake in non-tumor organs was found in the kidneys with a favorable tumor-to-kidney ratio of 3.3-3.4.
The tumor size measurements were continued for 42 days after dosing. The effect of therapy ^177Lu—PSM-0194 on the tumor volume was evaluated for each individual mouse. […] Tumor volume continued declining to a nadir on day 20, with a mean tumor volume (MTV) of 16±16 mm^3 (mean SEM). […] For the calculation of relative volumes, the tumor volumes on the day of dosing (day 0) were set to 100%.

Question: Which “effect of therapy on the tumor volume” value (ST1273 PDX mice, 30 MBq i.v., followed 42 days after dosing) does the source give for `CNCCCC[C@@H]1NC(=O)[C@@H](NC(=O)[C@H](Cc2ccc(Cl)cc2)NC(=O)C(C)(C)NC(=O)[C@@H](NC(=O)CC2CCN(C(=O)CN3CCN(CC(=O)O)CCN(CC(=O)O)CCN(CC(=O)O)CC3)CC2)[C@@H](C)O)CSSC[C@@H](C(=O)N[C@H](C(=O)N[C@H](C(N)=O)[C@@H](C)O)C(C)(C)C)NC(=O)[C@H](CC(N)=O)NC(=O)C(C)(C)NC(=O)[C@H](CCCNC(=N)NC)NC1=O` [^177Lu-PSM-0194, metal not drawn] ({DOTA}-[X1]T[Aib][Phe(4-Cl)]C[Lys(Me)][Arg(Me)][Aib]NC[Tle]T-NH2; disulfide 5-10) here?
Answer: reduction of the tumor volumes; also recorded: strong tumor regression and sustained tumor suppression

Question: What about the “start of re-growth of the tumor” value (animal M10, 30 MBq i.v.) of the same compound?
Answer: 23 days

Question: And the tumor volume (animal M10, day 42 after dosing, 30 MBq i.v.)?
Answer: 407 mm^3

Question: What about the “mean tumor volume (MTV) at nadir” value (day 20 after dosing, 30 MBq i.v., three mice, mean SEM) of the same compound?
Answer: 16±16 mm^3

Question: And the Tumor volumes (mouse M9, study day 2)?
Answer: 390 mm^3

Question: And the Relative tumor volume (mouse M9, study day 2, day 0 = 100%)?
Answer: 112%

Question: And the Tumor volumes (mouse M9, study day 6)?
Answer: 124 mm^3

Question: And the Relative tumor volume (mouse M9, study day 6, day 0 = 100%)?
Answer: 36%

Question: What about the Tumor volumes (mouse M9, study day 9) of the same compound?
Answer: 65 mm^3

Question: What about the Relative tumor volume (mouse M9, study day 9, day 0 = 100%) of the same compound?
Answer: 19%

Question: And the Tumor volumes (mouse M9, study day 13)?
Answer: 31 mm^3

Question: And the Relative tumor volume (mouse M9, study day 13, day 0 = 100%)?
Answer: 9.0%

Question: What about the Tumor volumes (mouse M9, study day 16) of the same compound?
Answer: 43 mm^3

Question: What about the Relative tumor volume (mouse M9, study day 16, day 0 = 100%) of the same compound?
Answer: 12%

Question: And the Tumor volumes (mouse M9, study day 20)?
Answer: 0 mm^3

Question: What about the Relative tumor volume (mouse M9, study day 20, day 0 = 100%) of the same compound?
Answer: 0.0%

Question: What about the Tumor volumes (mouse M9, study day 23) of the same compound?
Answer: 0 mm^3

Question: And the Relative tumor volume (mouse M9, study day 23, day 0 = 100%)?
Answer: 0.0%

Question: And the Tumor volumes (mouse M9, study day 27)?
Answer: 0 mm^3

Question: What about the Relative tumor volume (mouse M9, study day 27, day 0 = 100%) of the same compound?
Answer: 0.0%

Question: What about the Tumor volumes (mouse M9, study day 30) of the same compound?
Answer: 0 mm^3

Question: What about the Relative tumor volume (mouse M9, study day 30, day 0 = 100%) of the same compound?
Answer: 0.0%

Question: What about the Tumor volumes (mouse M9, study day 34) of the same compound?
Answer: 0 mm^3

Question: What about the Relative tumor volume (mouse M9, study day 34, day 0 = 100%) of the same compound?
Answer: 0.0%

Question: And the Tumor volumes (mouse M9, study day 37)?
Answer: 0 mm^3

Question: What about the Relative tumor volume (mouse M9, study day 37, day 0 = 100%) of the same compound?
Answer: 0.0%

Question: And the Tumor volumes (mouse M9, study day 41)?
Answer: 0 mm^3

Question: What about the Relative tumor volume (mouse M9, study day 41, day 0 = 100%) of the same compound?
Answer: 0.0%

Question: And the Tumor volumes (mouse M9, study day 42)?
Answer: 0 mm^3

Question: What about the Relative tumor volume (mouse M9, study day 42, day 0 = 100%) of the same compound?
Answer: 0.0%

Question: What about the Tumor volumes (mouse M10, study day 2) of the same compound?
Answer: 633 mm^3

Question: And the Relative tumor volume (mouse M10, study day 2, day 0 = 100%)?
Answer: 134%

Question: What about the Tumor volumes (mouse M10, study day 6) of the same compound?
Answer: 372 mm^3

Question: And the Relative tumor volume (mouse M10, study day 6, day 0 = 100%)?
Answer: 79%

Question: What about the Tumor volumes (mouse M10, study day 9) of the same compound?
Answer: 346 mm^3

Question: What about the Relative tumor volume (mouse M10, study day 9, day 0 = 100%) of the same compound?
Answer: 73%

Question: And the Tumor volumes (mouse M10, study day 13)?
Answer: 242 mm^3

Question: What about the Relative tumor volume (mouse M10, study day 13, day 0 = 100%) of the same compound?
Answer: 51%

Question: And the Tumor volumes (mouse M10, study day 16)?
Answer: 94 mm^3

Question: And the Relative tumor volume (mouse M10, study day 16, day 0 = 100%)?
Answer: 20%

Question: What about the Tumor volumes (mouse M10, study day 20) of the same compound?
Answer: 49 mm^3

Question: What about the Relative tumor volume (mouse M10, study day 20, day 0 = 100%) of the same compound?
Answer: 10%

Question: What about the Tumor volumes (mouse M10, study day 23) of the same compound?
Answer: 66 mm^3

Question: What about the Relative tumor volume (mouse M10, study day 23, day 0 = 100%) of the same compound?
Answer: 14%

Question: What about the Tumor volumes (mouse M10, study day 27) of the same compound?
Answer: 113 mm^3

Question: What about the Relative tumor volume (mouse M10, study day 27, day 0 = 100%) of the same compound?
Answer: 24%

Question: And the Tumor volumes (mouse M10, study day 30)?
Answer: 114 mm^3

Question: What about the Relative tumor volume (mouse M10, study day 30, day 0 = 100%) of the same compound?
Answer: 24%

Question: What about the Tumor volumes (mouse M10, study day 34) of the same compound?
Answer: 172 mm^3

Question: And the Relative tumor volume (mouse M10, study day 34, day 0 = 100%)?
Answer: 36%

Question: And the Tumor volumes (mouse M10, study day 37)?
Answer: 289 mm^3

Question: What about the Relative tumor volume (mouse M10, study day 37, day 0 = 100%) of the same compound?
Answer: 61%

Question: And the Tumor volumes (mouse M10, study day 41)?
Answer: 608 mm^3

Question: And the Relative tumor volume (mouse M10, study day 41, day 0 = 100%)?
Answer: 129%

Question: And the Tumor volumes (mouse M10, study day 42)?
Answer: 607 mm^3

Question: What about the Relative tumor volume (mouse M10, study day 42, day 0 = 100%) of the same compound?
Answer: 129%

Question: What about the Tumor volumes (mouse M12, study day 2) of the same compound?
Answer: 476 mm^3

Question: What about the Relative tumor volume (mouse M12, study day 2, day 0 = 100%) of the same compound?
Answer: 53%

Question: What about the Tumor volumes (mouse M12, study day 6) of the same compound?
Answer: 427 mm^3

Question: What about the Relative tumor volume (mouse M12, study day 6, day 0 = 100%) of the same compound?
Answer: 47%

Question: What about the Tumor volumes (mouse M12, study day 9) of the same compound?
Answer: 196 mm^3

Question: And the Relative tumor volume (mouse M12, study day 9, day 0 = 100%)?
Answer: 23%

Question: What about the Tumor volumes (mouse M12, study day 13) of the same compound?
Answer: 82 mm^3

Question: What about the Relative tumor volume (mouse M12, study day 13, day 0 = 100%) of the same compound?
Answer: 9.1%

Question: And the Tumor volumes (mouse M12, study day 16)?
Answer: 109 mm^3

Question: And the Relative tumor volume (mouse M12, study day 16, day 0 = 100%)?
Answer: 12%

Question: What about the Tumor volumes (mouse M12, study day 20) of the same compound?
Answer: 0 mm^3

Question: And the Relative tumor volume (mouse M12, study day 20, day 0 = 100%)?
Answer: 0.0%

Question: And the Tumor volumes (mouse M12, study day 23)?
Answer: 55 mm^3

Question: What about the Relative tumor volume (mouse M12, study day 23, day 0 = 100%) of the same compound?
Answer: 6.1%

Question: What about the Tumor volumes (mouse M12, study day 27) of the same compound?
Answer: 56 mm^3

Question: What about the Relative tumor volume (mouse M12, study day 27, day 0 = 100%) of the same compound?
Answer: 6.2%

Question: And the Tumor volumes (mouse M12, study day 30)?
Answer: 58 mm^3

Question: And the Relative tumor volume (mouse M12, study day 30, day 0 = 100%)?
Answer: 6.4%

Question: What about the Tumor volumes (mouse M12, study day 34) of the same compound?
Answer: 47 mm^3

Question: What about the Relative tumor volume (mouse M12, study day 34, day 0 = 100%) of the same compound?
Answer: 5.2%

Question: What about the Tumor volumes (mouse M12, study day 37) of the same compound?
Answer: 67 mm^3

Question: What about the Relative tumor volume (mouse M12, study day 37, day 0 = 100%) of the same compound?
Answer: 7.4%

Question: What about the Tumor volumes (mouse M12, study day 41) of the same compound?
Answer: 74 mm^3

Question: What about the Relative tumor volume (mouse M12, study day 41, day 0 = 100%) of the same compound?
Answer: 8.2%

Question: And the Tumor volumes (mouse M12, study day 42)?
Answer: 81 mm^3

Question: What about the Relative tumor volume (mouse M12, study day 42, day 0 = 100%) of the same compound?
Answer: 9.0%
